# Test results reported in publication PMC13267291, “In vivo functional profiling and structural characterization of the human GLP1R A316T variant” (Science Advances, 2026).
# Experiments:
# [1] = tested on: SNAP/FLAG-hGLP1R^A316T versus ^WT; assay: Real-time cytosolic calcium assay (Cal-520, AM) in transduced hGLP1R^-/- mouse islets; assay type: cell-based, human; conditions: 100 nM; 6 mM glucose; AUC; n = 3-4; fig. S7D-H
# Experimental: signal serially monitored for 30 min. The TR-FRET ratio, i.e. the ratio of fluorescence intensities at 590 and 490 nm, was considered indicative of the proximity of the GLP-1R ECD to the plasma membrane.
# Baseline-normalised AUCs were used to generate concentration– response curves fitted using GraphPad Prism 10.1.2, with logEC50 and Emax calculated for each replicate dose response curve.
# Real- time c ytosolic c alcium a ssay hGLP1R-/- mouse islets were transduced with pAV- SNAP/FLAG-hGLP1RWT or A316T adenoviruses for 24 hours, labelled with the Ca2+ dye Cal-520, AM (4.5 μM; Stratech) diluted in KBRH buffer containing 6 mM glucose for 1 hour and encased in Matrigel onto […] glass bottom MatTek dishes. Islets were then imaged every 6 s at 488 nm using a Nikon Eclipse Ti microscope with an ORCA-Flash 4.0 camera (Hamamatsu) and Metamorph software (Molecular Devices) at 37°C on a heated stage before and after addition of the indicated GLP-1RA followed by 11 mM glucose and then 20 mM KCl at the indicated time points. Raw fluorescence intensity traces from islet ROIs were extracted using Fiji. Responses were plotted relative to the average fluorescence intensity during the 6 mM glucose baseline period, before agonist addition, and AUCs separately calculated for the GLP- 1RA + 6 mM and 11 mM glucose […]
# Isolation o f detergent-resistant membrane (D RM) fractions
# To purify lipid rafts, […] fractions were isolated from INS-1 832/3 Glp1r-/- SNAP/FLAG-hGLP1RWT or A316T cells by ultracentrifugation based on their insolubility in non-ionic detergents at 4°C and their low density because of their high lipid-to- protein ratio. Cells seeded onto 6-cm dishes were stimulated ± 100 […]
# mM tris-HCl, pH 7.0 buffer supplemented with cOmplete EDTA-free protease inhibitor cocktail (Roche) and phosphatase inhibitor cocktail 2 (Sigma-Aldrich) for 10-15 minutes on a rocking platform at 4°C. The cell suspension was collected and homogenised by passing through a 21-gauge needle, followed by ultracentrifugation at 63,000 g f or 1 hour at 4°C with a Sorvall Discovery M120 ultracentrifuge. Pellets
# [2] = tested on: SNAP/FLAG-hGLP1R^A316T versus ^WT; assay: GLP-1R recycling assay; assay type: cell-based, human; conditions: INS-1 832/3 sublines; 1 hour agonist, 1 and 3 hours recycling; n = 3-4; Fig. 7H
# Experimental: INS-1 832/3 Glp1r^−/− SNAP/FLAG-hGLP1R^WT or ^A316T cells were seeded as above for 24 hours, washed with HBSS, pretreated with vehicle or GLP-1RA for 1 hour at 37°C in complete medium, washed again, and treated with 100 nM exendin-4–TMR in reverse time order for 3 hours and 1 hour at 37°C in complete medium. Plates were then promptly imaged after washing as above. In this assay, total exendin-4–TMR uptake is indicative of residual surface receptor at the end of the GLP-1RA treatment and cumulative reappearance of the surface receptor during the recycling period.
# [3] = tested on: hGLP1R^A316T-SmBiT versus hGLP1R^WT-SmBiT; assay: Mini-Gs recruitment by NanoBiT complementation; assay type: cell-based, human; conditions: serial doses up to 100 nM; n = 5; Fig. 7L
# Experimental: For mini-Gs recruitment, INS-1 832/3 Glp1r^−/− cells were seeded in 6-cm dishes and transiently cotransfected with 1.7 μg each of hGLP1R^WT or ^A316T-SmBiT and LgBiT-mini-Gs constructs for 24 hours. Cells were then detached, resuspended in Hanks’ balanced salt solution (HBSS) containing NanoGlo Live Cell Reagent (1:20; Promega) with furimazine, and seeded onto white 96-well half-area plates. Baseline luminescence was immediately recorded over 8 min at 37°C in a Flexstation 3 plate reader (Molecular Devices) and for a further 30 min after GLP-1RA addition at serial doses up to 100 nM. Readings were taken every 30 s and normalized to average well baseline, and average vehicle-induced signal was subtracted to establish the agonist-induced effect. To measure β-arrestin 2 recruitment, cells were processed as above with slight modifications: INS-1 832/3 Glp1r^−/− cells were cotransfected with 1.77 μg each of hGLP1R^WT or ^A316T-SmBiT and LgBiT–β-arrestin 2 plasmids for 24 hours, and GLP-1RAs were added at serial doses up to 1 μM. AUCs were calculated for each agonist concentration and fitted to log(agonist) versus response four-parameter curves using GraphPad Prism 10.1.2, with errors propagated for mini-Gs over β-arrestin 2 recruitment bias calculations.
# [4] = tested on: SNAP/FLAG-hGLP1R^A316T versus ^WT; assay: Real-time cAMP imaging (cADDis) in INS-1 832/3 sublines; assay type: cell-based, rat; conditions: 100 nM, n = 4, no significant differences, fig. S8K-P
# Experimental: To measure cAMP, hGLP1R^A316T/A316T versus ^+/+ control mouse islets, or INS-1 832/3 SNAP/FLAG-hGLP1R^WT versus ^A316T cells cultured on glass-bottom MatTek dishes, were transduced with cADDis (Green Gs cADDis cAMP Kit, Montana Molecular), a baculovirus genetically encoding a fluorescent cAMP in situ biosensor, following the manufacturer’s instructions. Transduced islets were subsequently encased into Matrigel on glass-bottom MatTek dishes 24 hours after transduction, and both islets and cells were imaged at λex = 488 nm in a Nikon Eclipse Ti spinning disk confocal microscope and 20× objective with an ORCA-Flash 4.0 camera (Hamamatsu) for time-lapse recordings with image acquisitions every 6 s in KRBH buffer containing 0.1% (w/v) BSA and 6 mM glucose for 2 min to record the baseline, with 100 nM GLP-1RA subsequently added by manual pipetting, and islets imaged for a further 5 min before addition of 100 μM IBMX + 10 μM forskolin for the final 2 min of the acquisition. Raw green fluorescence intensity traces were extracted from whole islet regions of interest (ROIs) using Fiji, and mean intensities were calculated for each ROI and time point. Responses were plotted relative to average fluorescence intensity per islet during the baseline period before GLP-1RA addition.
Substance,"Agonist-induced Ca^2+ responses, A316T versus WT [1]",A316T receptor recycling to the plasma membrane versus WT [2],"A316T mini-Gs recruitment versus WT, log(Emax/EC50) [3]","cAMP responses, A316T versus WT [4]"
exendin-F1,increased,not different from WT,increased potency,tendency for increased cAMP
GLP-1(7-36)NH2,not significantly different,significantly reduced,No significant changes,tendency for increased cAMP
exendin-4,not significantly different,not different from WT,No significant changes,reduced responses
